Columns and labels:
[1] = system: CHL-GLP-1 tumor-bearing mouse; set-up: species or system mice; settings: in vivo
Method: Animal studies complied with Swiss laws on animal protection and husbandry and were approved by the Veterinary office of the Canton Zurich. After an acclimatization period, tumor xenografts were produced in 6-week old female CD1 nu/nu mice by subcutaneous injection in both shoulder regions of CHL-GLP-1 receptor positive cells (8 × 10^6 cells/mouse in PBS (100 μL, pH 7.4)) under 2%–3% isoflurane anaesthesia. Ex vivo biodistribution experiments were conducted three weeks after the inoculation. PET imaging experiments were performed five weeks after the inoculation. Two tumor bearing mice were injected with ^18F-2 (13.0 MBq in 80 and 100 μL PBS containing ≤ 5% ethanol, 1.3 and 1.9 nmol) via lateral tail vein. Anaesthesia was induced with 5% isoflurane (Abbott) in O2/air 5 min before PET/CT acquisition. Depth of anaesthesia and temperature were controlled as described by Honer et al. (Honer et al. [2004]). PET/CT scans were performed under 2–3% isoflurane anaesthesia with a GE VISTA eXplore PET/CT tomograph. […] Standardized uptake values (SUV) were calculated as a ratio of tissue radioactivity concentration (kBq/cm^3) and injected activity dose per gram body weight (kBq/g) at the scan start. Percentage injected dose per gram of tissue (%ID/g) was calculated using SUV values: SUV / body weight [g] × 100% = %ID/g.

[2] = system: nude mice bearing CHL-GLP-1 receptor positive tumor xenografts; settings: mouse, in vivo
Method: Animal studies complied with Swiss laws on animal protection and husbandry and were approved by the Veterinary office of the Canton Zurich. After an acclimatization period, tumor xenografts were produced in 6-week old female CD1 nu/nu mice by subcutaneous injection in both shoulder regions of CHL-GLP-1 receptor positive cells (8 × 10^6 cells/mouse in PBS (100 μL, pH 7.4)) under 2%–3% isoflurane anaesthesia. Ex vivo biodistribution experiments were conducted three weeks after the inoculation. PET imaging experiments were performed five weeks after the inoculation.
Tumor-bearing mice (n = 12) were injected intravenously with ^18F-2 (200 kBq in 100 μL PBS, 1.3 pmol, 5.9 ng). The animals were sacrificed at 30 min, 1 h and 2 h post injection (n = 4 for each time point). To determine specific binding an additional group of tumor-bearing mice (n = 4) received nonradioactive precursor 1 (100 μg in 100 μL PBS, 22 nmol) co-injected with ^18F-2 (266 kBq in 100 μL PBS, 1.7 pmol, 7.8 ng) and were sacrificed 1 h post injection. Organs and tissues of interest were collected and weighed, and the amount of radioactivity was determined in a γ-counter (1480 Wizard, PerkinElmer) to calculate percentage uptake (% injected dose per gram of tissue). Statistical significance was calculated using Student t-test (two populations, unpaired). P values of less than 0.05 were considered statistically significant.

[3] = system: dipeptidyl peptidase IV (DPP4); settings: degradation by DPP4; ref Pauly et al. [1999]; cited from earlier work
Text: The glucagon-like peptide type 1 receptor (GLP-1R) is overexpressed in virtually all benign insulinoma with high incidence and density and is considered a valuable target for the efficient visualisation by radiotracers (Reubi and Waser [2003]; Wild et al. [2011]; Wild et al. [2008]; Korner et al. [2012]). The natural ligand released from ileal L-cells, glucagon-like peptide 1 (GLP-1) stimulates the insulin secretion in β-cells by binding to the GLP-1R.

Substance: His-Gly-Glu-Gly-Thr-Phe-Thr-Ser-Asp-Leu-Ser-Lys-Gln-Nle-Glu-Glu-Glu-Ala-Val-Arg-Leu-Phe-Ile-Glu-Trp-Leu-Lys-Asn-Gly-Gly-Pro-Ser-Ser-Pro-Ala-Pro-Pro-Pro-Ser-Lys-(N ^6 –2-(4-(di-tert-butylfluorosilyl)phenyl)acetyl)-NH 2 [^18F-2]
- Tumor to background ratio [1]: ~ 3
- tumor to blood ratio [2]: 4 ± 2

Substance: GLP-1: natural ligand of GLP-1R released from ileal L-cells
- metabolic half-life [3]: less than 2 min
